Numbers after ± are expanded uncertainties.
Legend:
[1] = refractive index (Na D-line) (dimensionless); conditions: 298 K; 101.33 kPa; Liquid; Standard Abbe refractometry
[2] = mn = molality of the nth substance listed, in mol/kg; conditions: 298 K, 100 kPa, Liquid, Frequency=0.001 MHz, Alternating current cell with electrodes
[3] = refractive index (Na D-line) (dimensionless); mn = molality of the nth substance listed, in mol/kg; conditions: 298 K, 100 kPa, Liquid, Standard Abbe refractometry
[4] = 298 K; 100 kPa; Liquid; Frequency=0.001 MHz; Alternating current cell with electrodes

Work on CCCO [propan-1-ol] yielded a refractive index [1] of 1.3834 ± 0.0007.

Compound CCO [ethanol] + O has an electrical conductivity ([2]; m1 = 0.9) of 0.000248 S/m, an electrical conductivity ([2]; m1 = 1.46) of 0.000259 ± 0.0005 S/m and an electrical conductivity ([2]; m1 = 2.69) of 0.000287 ± 0.0005 S/m. It also gave an electrical conductivity ([2]; m1 = 4.09) of 0.000311 ± 0.0005 S/m, an electrical conductivity ([2]; m1 = 7.59) of 0.000251 ± 0.0005 S/m and an electrical conductivity ([2]; m1 = 9.51) of 0.000252 ± 0.0005 S/m. For the same compound, the refractive index ([3]; m1 = 0.9) was 1.3362 ± 0.0007, the refractive index ([3]; m1 = 1.46) was 1.3375 ± 0.0007 and the refractive index ([3]; m1 = 2.69) was 1.34 ± 0.0007. It also gave a refractive index ([3]; m1 = 4.09) of 1.3431 ± 0.0007, a refractive index ([3]; m1 = 7.59) of 1.3497 ± 0.0007 and a refractive index ([3]; m1 = 9.51) of 1.3521 ± 0.0007.

CC(C)O [propan-2-ol] showed a refractive index [1] of 1.3758 ± 0.0007.

In the case of CCO [ethanol], the refractive index [1] is reported as 1.36 ± 0.0007.

Work on CCCCCCCCCCCCOS(=O)(=O)[O-].[Na+] [sodium dodecyl sulfate] + O yielded an electrical conductivity ([2]; m1 = 0.00099) of 0.00957 ± 0.0005 S/m, an electrical conductivity ([2]; m1 = 0.00198) of 0.0183 ± 0.00061 S/m and an electrical conductivity ([2]; m1 = 0.00297) of 0.0271 ± 0.00061 S/m. For the same compound, the electrical conductivity ([2]; m1 = 0.00396) was 0.0357 ± 0.00061 S/m, the electrical conductivity ([2]; m1 = 0.00495) was 0.0443 ± 0.00061 S/m and the electrical conductivity ([2]; m1 = 0.00594) was 0.0528 ± 0.00063 S/m. It also gave an electrical conductivity ([2]; m1 = 0.00693) of 0.061 ± 0.00069 S/m, an electrical conductivity ([2]; m1 = 0.00792) of 0.0684 ± 0.00073 S/m and an electrical conductivity ([2]; m1 = 0.00891) of 0.074 ± 0.00076 S/m. The electrical conductivity ([2]; m1 = 0.0099) was 0.0777 ± 0.00079 S/m, the electrical conductivity ([2]; m1 = 0.01089) was 0.0813 ± 0.00083 S/m and the electrical conductivity ([2]; m1 = 0.01188) was 0.0846 ± 0.00086 S/m. For the same compound, the electrical conductivity ([2]; m1 = 0.01287) was 0.0878 ± 0.00089 S/m and the electrical conductivity ([2]; m1 = 0.01386) was 0.09108 ± 0.00091 S/m.

CCCO [propan-1-ol] + O gave an electrical conductivity ([2]; m1 = 0.87) of 0.000153 S/m, an electrical conductivity ([2]; m1 = 1.49) of 0.000145 S/m and an electrical conductivity ([2]; m1 = 2.76) of 0.000111 S/m. It also gave an electrical conductivity ([2]; m1 = 4.29) of 0.000117 S/m, an electrical conductivity ([2]; m1 = 6.77) of 0.000143 S/m and a refractive index ([3]; m1 = 0.87) of 1.3381 ± 0.0007. It also gave a refractive index ([3]; m1 = 1.49) of 1.3414 ± 0.0007, a refractive index ([3]; m1 = 2.76) of 1.3465 ± 0.0007 and a refractive index ([3]; m1 = 4.29) of 1.3516 ± 0.0007. The refractive index ([3]; m1 = 6.77) was 1.3572 ± 0.0007.

CC(C)O [propan-2-ol] + O showed an electrical conductivity ([2]; m1 = 0.85) of 0.000134 S/m, an electrical conductivity ([2]; m1 = 1.45) of 0.000141 S/m and an electrical conductivity ([2]; m1 = 2.84) of 8.2e-05 S/m. It also gave an electrical conductivity ([2]; m1 = 4.36) of 9.4e-05 S/m, an electrical conductivity ([2]; m1 = 8.72) of 5e-05 S/m and an electrical conductivity ([2]; m1 = 13.08) of 4.7e-05 S/m. For the same compound, the refractive index ([3]; m1 = 0.85) was 1.3374 ± 0.0007, the refractive index ([3]; m1 = 1.45) was 1.3408 ± 0.0007 and the refractive index ([3]; m1 = 2.84) was 1.3467 ± 0.0007. It also gave a refractive index ([3]; m1 = 4.36) of 1.3511 ± 0.0007, a refractive index ([3]; m1 = 8.72) of 1.361 ± 0.0007 and a refractive index ([3]; m1 = 13.08) of 1.365 ± 0.0007.

O [water] showed an electrical conductivity [4] of 0.000502 ± 0.0005 S/m and a refractive index [1] of 1.3327 ± 0.0007.
